According to patent US9375457B2, “Composition comprising Rhizoma coptidis, Cortex phellodendri and Fructus gardeniae and for treating neurodegenerative diseases” (Hong Kong Baptist University, priority 2013, dated 2016):

Tests used:
N2a-SwedAPP cells = experiment: MTT viability assay in N2a-SwedAPP cells; type: cell-based, murine; details: mouse, 48 h
Method: (§1) N2a-SwedAPP cells were obtained from Dr. Gopal Thinakaran (University of Chicago, Chicago, Ill., USA). N2a-SwedAPP cells were cultured in Dulbecco's modified Eagle's medium (DMEM) and OPTI-MEM medium in a 1:1 ratio with 5% FBS, 50 μg/mL penicillin, 50 μg/mL streptomycin and 200 μg/mL G418 as previously described in Thinakaran G, Teplow D B, Siman R, Greenberg B, Sisodia S S (1996) Metabolism of the “Swedish” amyloid precursor protein variant in neuro2a (N2a) cells. J Biol Chem 271: 9390-9397. N2a-SwedAPP cells were incubated at 37° C. in a 5% CO2/95% humidity incubator. Cells were seeded 24 hours prior to the treatments. When growth reached close to 90% of confluence, cells were transferred into DMEM with 1% FBS for loading extracts. The final concentration of DMSO in all experiments was 0.1%, and this concentration caused no cytotoxicity.
For the viability assay, N2a-SwedAPP cells were seeded in a 96-well plate (7000 cells/well and 5000 cells/well). […] Finally, optical intensity was measured using a BioRad plate reader at 570 nm and a reference of 620 nm. […]
N2a-SwedishAPP cells are widely used as a cellular model of Alzheimer's disease, because they express a high level of APP and Aβ. The effects of HLJDT and its components on viability of N2SwedAPP cells are monitored by using the MTT assay. […]

[1] = tested on: APP processing (F1-APP, pAPPThr668, CTFs, sAPPα, sAPPβ-sw) in N2a-SwedAPP cells; experiment: Western blot of APP metabolic products in N2a-SwedAPP cells; type: cell-based, murine; design: key to Fl-APP (overall influence) / CTFs (overall influence) / sAPPα (overall influence) / sAPPβ (overall influence): ↓ decreased; ↑ increased; ? unchanged
Method: as §1
To detect the levels of APP metabolic products, the cell lysates and the conditioned media were prepared as described in Durairajan S S K, Liu L F, Lu J H, Koo I, Maruyama K, Chung S K, Huang J D, Li M. (2011) Stimulation of non-amyloidogenic processing of amyloid-β protein precursor by cryptotanshinone involves activation and translocation of ADAM10 and PKC-α. J Alzheimer's Dis 25: 245-262, with minor modification. N2a-SwedAPP cells were seeded at a density of 4×10^5/mL in DMEM medium in a 6-well plate and cultured for 1 day. After transfer, cells were treated with different doses of RC, CP, FG and RS for 48 hours, then the extracellular media were collected for detection of sAPPα and sAPPβ-sw, and cells were harvested to quantify F1-APP and β-actin by Western blot analysis, as described previously by Durairajan et al. For intracellular APP, APP-CTFs and Aβ preparation, cells were washed with ice-cold PBS twice and solubilized in ice-cold RIPA buffer with protease inhibitor cocktail added. Lysates were collected and centrifuged at 16,000×g for 15 minutes at 4° C. The resulting supernatants were collected, and their protein concentrations were determined with bicinchoninic acid (BCA) protein assay reagent (Thermo Scientific, IL, USA). For sAPPα and sAPPβ-sw detection, the conditioned media are collected and frozen in liquid nitrogen, subjected to lyophilization at −40° C. under vacuum of 105 μbar for 2 days in order to remove all liquid. The conditioned media were standardized to total cell lysate protein.
For Western blot analysis from cell culture or mouse brain, 10-30 μg total protein is separated on 10% and 15% SDS-PAGE gels and blotted onto PVDF membranes for the detection of full length APP (F1-APP), CTFs, sAPPα, sAPPβ-sw, 3-actin and phosphorylated APP (pAPPThr668). After blocking with 5% skimmed milk, the blots are incubated with primary antibodies overnight at 4° C. with shaking. Blots are washed and incubated with HRP-conjugated secondary antibodies. The goat anti-mouse IgG is used when the primary antibody is 6E10 (1:1000), sAPPβ-sw (1:100), or anti-β-actin (1:5000), and the goat anti-rabbit IgG is used when the primary antibody is anti-CT15 (1:5000) or pAPPThr668 (1:1000). After incubation with HRP-conjugated secondary antibody, immunoblots are treated with ECL and developed using X-ray films (Fujifilm). Films are scanned, and the band intensity is analyzed using Image J software (NIH Image).
Stripped CT15 and 6E10 probed membranes are reincubated with pAPPThr668 and sAPPβ-sw 6A1 antibodies, respectively.
Western blotting of N2a-SwedAPP cells is used to test differences in the processing of Swedish mutant APP by HLJDT components. Several antibodies are used in Western blot analysis: CT15 recognizes full length APP (F1-APP), 6E10 identifies only α-secretase-cleaved APP i.e sAPPα, and the sAPPβ-sw specific for β-secretase cleavage of Swedish mutant APP.

With `O=c1cc(-c2ccccc2)oc2cc(O)c(O)c(O)c12` [baicalein] the “non-toxic concentration (highest concentration that shows greater than 90% cell viability)” value (N2a-SwedAPP cells) was 12.5 µM, the “maximal increase of CTFs, fold of basal release” value ([1]; 12.5 μM, 48 hours) was 2.36 fold and the “maximal increase of F1-APP, fold of basal release” value ([1]; 12.5 μM, 48 hours) was 1.68 fold. The “maximal increase of pAPPThr668, fold of basal release” value ([1]; 12.5 μM, 48 hours) was 1.58 fold, the “maximal secretion of sAPPα, fold of basal release” value ([1]; 12.5 μM, 48 hours) was 2.65 fold and the “maximal secretion of sAPPβ-sw, fold of basal release” value ([1]; 12.5 μM, 48 hours) was 1.70 fold. For the same molecule, the “CTFs (overall influence)” value ([1]; N2a-SwedAPP cells) was “↑”, the “Fl-APP (overall influence)” value ([1]; N2a-SwedAPP cells) was “↑” and the “sAPPα (overall influence)” value ([1]; N2a-SwedAPP cells) was “↑”. For the same molecule, the “sAPPβ (overall influence)” value ([1]; N2a-SwedAPP cells) was “↑”.
